This passage reports GI50 and TGI results from PubChem BioAssay (NCI).

Molecules are shown by their SMILES. Values joined by “and” are separate entries in the source; they are usually repeats but may differ in a detail not shown here. Identical values can stand only once.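 Interpolation was linear, between the two tested concentrations surrounding the appropriate level; five concentrations were tested over 48 hours in 96-well plates. Here, GI50 denotes the concentration required for 50% inhibition of growth. Definition used: TGI = concentration required for complete inhibition of growth.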

Common to all, as to assay: growth of human tumour cells (NCI), 48 h
Test [1] has as its system T-47D breast.
The subject of test [2] is M19-MEL melanoma.
In test [3] the test system is SNB-78 CNS.
Test [4] deals with LXFL 529 NSCLC.
Test [5] concerns XF 498 CNS.
Test [6] relates to HOP-18 NSCLC.
The test system of test [7] is DMS 114 small cell lung.
Test [8] deals with MDA-N.
The test system of test [9] is RXF-631 renal.

As to `N#Cc1c(N)nc(N2CCOCC2)c(C#N)c1-c1ccc(Cl)cc1`, in [1], the GI50 is 16.1 µM and the TGI is greater than 100 µM.

Consider `Cc1ccc(S(=O)(=O)NNC(=O)c2sc(-c3nc(C)c(C(=O)NNS(=O)(=O)c4ccc(C)cc4)s3)nc2C)cc1`, for which the TGI in test [2], in test [3] and in test [4] was greater than 100 µM throughout.

Turning to `O=C(O)C12C3C4C1C1C2C3C1(Br)C41OCCO1` (centres undefined), the TGI in test [2], in test [3], in test [5], in [6], in test [4] and in test [7] was greater than 100 µM each time.

Take `COc1ccc(-c2nnc(SCC(=O)Nc3ccc(/C(C)=N\O)cc3)n2-c2ccccc2)cc1OC`: in test [1], the GI50 is 9.45 µM and the TGI was greater than 100 µM.

Consider `COc1ccc(C/C(C)=C(\c2ccc(OCCN3CCOCC3)cc2)c2ccc(OC(=O)Cc3ccccc3)cc2)cc1`, for which, in [1], the GI50 was 0.483 µM and the TGI is 1.28 µM.

As for `O=C1/C(=C/c2ccccc2F)CNC/C1=C\c1ccccc1F`, the GI50 was 1.07 µM and 2.6 µM in test [1]; 0.485 µM in test [8]. For the same compound, the TGI in test [1] is 6.1 µM and 12.2 µM; in test [8], 1.71 µM.

Take `COc1cc(C(O)c2nc3ccccc3s2)cc(OC)c1OC` (centres undefined): in [1], the GI50 is 17.3 µM and the TGI is greater than 100 µM.

For the compound `Nc1ncnc2c1ncn2CC(O)C(=O)O` (centres undefined), the TGI in test [2], in test [1], in [8], in test [6], in test [4] and in test [7] was greater than 100 µM each time.

As to `N#C/C(=C1\NN=C(N)C(c2ccc(Cl)cc2)=C1O)c1ccc(Cl)cc1`, the TGI in test [2], in test [3], in test [5], in [6], in test [4] and in test [7] was greater than 100 µM each time.

On to `CC(=O)Nc1ccccc1C=C1c2ccccc2-c2ccccc21`, for which the TGI in test [1] and in test [8] was greater than 100 µM throughout.

Regarding `CCCCCCCCC(=O)N(C)C1C2CN3CCC(O2)C13` (centres undefined), the TGI in test [2], in test [3], in test [6], in test [4] and in test [7] was greater than 100 µM in each case.

Regarding `Cc1nn(-c2ccccc2)c2c1CC(=O)Nc1ccccc1-2`, the TGI in [8] came to 0.47 µM.

For `C/C(=C\c1ccn(-c2ccc(N)c(F)c2)n1)[C@@H]1C[C@@H]2O[C@]2(C)CCC[C@H](C)[C@H](O)[C@@H](C)C(=O)C(C)(C)[C@@H](O)CC(=O)O1`, in test [1], the GI50 was 0.0249 µM and the TGI is greater than 50 µM.

On to `O=C(/C=C/c1cccs1)c1ccc(Nc2nc(Nc3ccc(F)cc3)nc(Nc3ccc(F)cc3)n2)cc1`, for which, in [1], the GI50 was 15.2 µM and the TGI stood at 79.1 µM.

On to `COC1(O)C(=O)c2ccccc2OC1(OC)c1ccccc1` (centres undefined), for which the TGI in test [1] and in test [8] was greater than 100 µM in each case.

Consider `Cc1cc(NC(=O)NC(=O)c2ccccc2N)ccc1Oc1ncc(Br)cn1`, for which the TGI in test [2] was greater than 100 µM; in [1], greater than 24.4 µM; in test [3], greater than 100 µM; in [5], 67.6 µM; in test [6], greater than 78 µM; in test [4] it was greater than 57.2 µM. This compound also showed a TGI in [7] of 0.0209 µM.

Take `O=C1/C(=C/c2ccc([N+](=O)[O-])o2)Oc2ccc(Br)cc21`: in test [1], the GI50 is 1.92 µM and the TGI came out at 4.39 µM.

For the compound `NC(=O)c1cc([N+](=O)[O-])c(Cl)c([N+](=O)[O-])c1`, in test [1], the GI50 was 2.32 µM and the TGI is 5.12 µM.

Consider `Cc1ccc2c(c1C)-c1c(ccc(C)c1C)C(=O)C2=O`, for which the TGI in test [1] worked out at 44.3 µM; in test [8], 0.348 µM.

With `C[C@H]1[C@H](C)CC[C@]2(C(=O)N3CCN(C)CC3)CC[C@]3(C)C(=CC[C@@H]4[C@@]5(C)C/C(=C/c6cccnc6)C(=O)C(C)(C)[C@@H]5CC[C@]43C)[C@H]12`, in test [1], the GI50 is 0.511 µM and the TGI is 2.16 µM.

In the case of `O/N=C/c1cc2c(cc1Br)OCO2`, the TGI in test [2], in test [3], in test [6], in [9] and in [4] was greater than 100 µM throughout.

In the case of `CN(C)c1ccc(-c2cc(-c3ccc(Nc4nc(Nc5ccccc5)nc(Nc5ccc(Cl)cc5)n4)cc3)nc(N)n2)cc1`, in test [1], the GI50 is 3.04 µM and the TGI was determined as 17.9 µM.

Take `CC1CC(c2cccc3c2OCO3)=Nc2ccccc2S1` (centres undefined): the TGI in [2], in [3], in test [5], in test [4] and in test [7] was greater than 100 µM each time.

For `CC(C)[C@@]12C[C@@H](OC(=O)COC(=O)/C=C/c3ccccc3)[C@@](C)(O1)[C@@H]1CC[C@@H](C)[C@H]1[C@@H]2OC(=O)/C=C/c1ccccc1`, in test [1], the GI50 is greater than 100 µM and the TGI is greater than 100 µM.

`Cc1ccc(/C=C2/SC(Nc3nc(-c4nc(NC5=NC(=O)/C(=C\c6ccc(C)cc6)S5)sc4C)c(C)s3)=NC2=O)cc1`: in [1], the GI50 was 22.3 µM and the TGI was greater than 50 µM.

`O=C(CCCCCCSc1nc(-c2ccccc2)cc(-c2ccccc2)n1)NO`: in test [1], the GI50 is 1.86 µM and the TGI worked out at 8.21 µM.

`O=C(O)CCSCCCN1C(=O)c2ccccc2C1=O`: the TGI in test [2], in [3], in [4] and in [7] was greater than 100 µM in each case.

With `O=c1c2cccc3cccc(c4oc5c6cccc7cccc(c(=O)c5c14)c76)c32`, the TGI in test [2] came out at 16.9 µM; in test [3] it was 21.2 µM; in [6], 24.8 µM; in [9] it was 19.3 µM; in test [4], 15.8 µM; in test [7], 18.5 µM.

In the case of `CN1CCN(c2nc(NCCCCNc3ccnc4cc(Cl)ccc34)c3ccccc3n2)CC1`, in [1], the GI50 is 2.23 µM and the TGI was 6.65 µM.

Take `CCN(CCNc1ccc(C)c2sc3cc(Cl)ccc3c(=O)c12)CC(C)O` (centres undefined): in [1], the GI50 was 1.76 µM and the TGI amounted to 4.14 µM.

Consider `O=c1c(Sc2c(O)c3ccccc3c3ccccc3c2=O)c(O)c2ccccc2c2ccccc12`, for which the TGI in test [2] is greater than 100 µM; in [6] it was greater than 100 µM; in test [9] it was greater than 100 µM; in test [4] it was greater than 100 µM; in test [7] it was 92.3 µM.

`COc1ccc(C(=O)/C=C/c2c(C(F)(F)F)nc3sccn23)cc1OC`: in test [1], the GI50 is 2.9 µM and the TGI was found to be 40.7 µM.

Consider `CN(CC(=O)O)c1ccc(/C=C/c2ccnc3ccccc23)cc1`, for which the results for the TGI in test [1] and in test [8] were greater than 100 µM and 53.9 µM, respectively.

Regarding `O=C1C=C[C@@]23C[C@@H](Nc4c(O)c5c6c(c42)=NCCC=6C=N5)SC3=C1`, the GI50 in test [2] is 1.71 µM; in test [1], 2.96 µM; in test [3] it was 3.24 µM; in [5], 2.34 µM; in test [6], 14.8 µM. Further, the TGI in test [2] was determined as 3.24 µM; in test [1] it was 7.47 µM; in test [3], 12.3 µM; in test [8] it was 3.1 µM; in test [5], 4.95 µM; in test [6] it was 28.1 µM. The compound further yielded a TGI in [4] of 3.24 µM.

For the compound `C=CC1=C[C@@H]2[C@@H]3O[C@]4(CC[C@H](O4)[C@@H](C)C[C@@H](O)C3=O)C[C@H](O)C3=NCC[C@@]32CC1`, in test [1], the GI50 is less than 0.00333 µM and the TGI was 0.00634 µM.

In the case of `CCN1CCN(CC(=O)Nc2nc3ccc(NCc4ccc(Cl)cc4)cc3s2)CC1`, in test [1], the GI50 was 1.94 µM and the TGI was 5.8 µM.

Consider `CC(=O)Nc1ccc(/C=N\N2C(=O)c3ccccc3C2=O)cc1`, for which the TGI in [2], in test [3], in test [5], in test [6], in test [4] and in test [7] was greater than 100 µM each time.

For the compound `CC(/C(=N/NC(=O)C(N)=O)c1c(Cl)ccc(Cl)c1O)C1(O)C(=O)Nc2ccccc21` (centres undefined), the TGI in test [2], in test [3], in [6], in test [9], in [4] and in test [7] was greater than 100 µM throughout.

For `COCC1N=C(c2cc(OC)c(OC)c(OC)c2-c2cc3c(cc2C2OCCCO2)OCO3)O[C@H]1c1ccccc1` (some centres undefined), the TGI in test [2] and in [7] was greater than 100 µM in each case.

Turning to `CS(=O)(=O)c1ccc(-c2cnc(N)c(C(=O)Nc3ccccc3)n2)cc1`, in test [1], the GI50 is greater than 100 µM and the TGI is greater than 100 µM.

`COC(=O)c1cc(-c2cc(OC)c(OC)c(OC)c2)[nH]c1N/N=C/c1c(Cl)cccc1Cl`: in test [1], the GI50 was 1.92 µM and the TGI stood at 6.29 µM.

Compound `NC(=O)c1oc([N+](=O)[O-])c(-c2ccccc2)c1-c1ccccc1` returned a TGI in test [1] of 50.3 µM.

Turning to `Cc1nc2cnc3cc(F)c(-c4ccc(Oc5ncccn5)cc4Cl)cc3c2n1[C@H]1CCN(C(=O)CO)C[C@@H]1F`, in test [1], the GI50 was 36 µM and the TGI was greater than 100 µM.

Turning to `C=C1CC2(C[C@@H](c3ccccc3)O[C@@H](c3ccccc3)C2)OC1=O` (some centres undefined), the TGI in test [1] came to 3.68 µM; in test [8], 5.76 µM.

As for `C=C1C(=O)OC2C1CC[C@H](C)C13OC(=O)CC1[C@@]23C` (some centres undefined), the TGI in test [2], in test [3], in test [4] and in test [7] was greater than 100 µM each time.

For the compound `CC1=CCC(OC(=O)C(C)(C)CCC(O)(C(=O)OC2(C(C)C)CCC3(C)OC3C2)C(C)C)(C(C)C)CC1` (centres undefined), in test [1], the GI50 was 0.152 µM and the TGI was determined as 1.24 µM.

Take `CCCCCCC#Cc1ccccc1C#CCO`: in [1], the GI50 is 16.3 µM and the TGI is 35.1 µM.

On to `CC(C)(O)C1CCC(Nc2ccc3ncc(-c4cccc(C(F)(F)F)c4)n3n2)CC1` (centres undefined), for which, in [1], the GI50 was 1.5 µM and the TGI was 5.13 µM.

For the compound `CC1=C(C(=O)Nc2cccc(Cl)c2)C(c2ccc([N+](=O)[O-])cc2)C(C(=O)Nc2cccc(Cl)c2)=C(C)N1`, the TGI in test [3] is greater than 100 µM; in [6], 56.7 µM; in test [9], 57.6 µM; in test [4] it was greater than 100 µM; in test [7], greater than 100 µM.

For the compound `CCCCCCCCCCC(O)[C@H]1CCC(C2CC[C@H]([C@H](O)CCCCCCCCCCC(O)CC3=CC(C)OC3=O)O2)O1` (some centres undefined), the TGI in [2] came to 8.92 µM; in test [3], 8.16 µM; in [9] it was 8.13 µM; in test [4], 9.79 µM; in test [7], 3.01 µM.

For `O=C1c2ccc3c4c5ccc(c24)C(=O)N1CCCOCCCCOCCCNCc1ccc(cc1)CNCCCOCCCCOCCCN(C3=O)C5=O`, in test [1], the GI50 is 0.997 µM and the TGI is 2.28 µM.

For `c1cc(CCN2CCCCC2)ccn1`, the TGI in test [1] and in [8] was greater than 100 µM throughout.

With `C[C@]12CC[C@@H]3c4ccc(O)cc4CC[C@H]3[C@@H]1CC[C@@H]2NS(=O)(=O)c1cccc(C(F)(F)F)c1`, in test [1], the GI50 is 3.65 µM and the TGI was determined as 13.4 µM.

Consider `Cc1nc2sc(C(=O)Nc3cccc4ccccc34)c(N)c2cc1C(=O)/C=C/c1ccccc1`, for which, in [1], the GI50 was 0.724 µM and the TGI was greater than 11 µM.

As for `Cn1c(=O)c(Oc2ccc(F)cc2F)cc2cnc(NC(CO)CO)nc21`, in test [1], the GI50 was greater than 25 µM and the TGI was greater than 25 µM.

As for `COc1ccc(-c2cc(-c3ccccc3)nc(N3CCN(CCNc4ccnc5cc(Cl)ccc45)CC3)n2)cc1`, in test [1], the GI50 is 1.55 µM and the TGI turned out to be 3.73 µM.
